# From patent publication US6534632B2, “Sialidase localized in plasma membrane DNA coding for the same” (priority 1997, dated 2003)
# Read-outs that look alike come from different tables or passages of the source.
# What was measured:
# Type in all cases: biochemical
# [1] = molecular target: T1, bovine membrane-bound sialidase (Bos taurus, UniProt O97859); assay: Inhibition, activation and stabilization of purified bovine membrane-bound sialidase; details: in words
# T1 construct: the sialidase activity was purified by more than 100,000 times from the bovine brain particulate fraction; from tissue; host or cells: bovine brain (particulate/membrane fraction, detergent-solubilized, 10-step chromatographic purification)
# T1 sequence (O97859 1-428): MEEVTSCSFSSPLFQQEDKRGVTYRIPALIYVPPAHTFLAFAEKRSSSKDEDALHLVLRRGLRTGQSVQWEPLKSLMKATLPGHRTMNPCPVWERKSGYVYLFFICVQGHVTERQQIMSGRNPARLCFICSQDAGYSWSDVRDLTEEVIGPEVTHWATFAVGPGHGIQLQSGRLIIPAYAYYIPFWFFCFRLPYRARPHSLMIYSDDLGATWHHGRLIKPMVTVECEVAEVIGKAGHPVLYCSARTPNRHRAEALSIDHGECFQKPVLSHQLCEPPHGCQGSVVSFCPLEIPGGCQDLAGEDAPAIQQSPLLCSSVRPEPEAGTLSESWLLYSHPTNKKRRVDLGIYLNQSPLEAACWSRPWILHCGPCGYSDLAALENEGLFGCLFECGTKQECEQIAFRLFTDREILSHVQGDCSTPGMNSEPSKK
# [2] = molecular target: T1, bovine membrane-bound sialidase; assay: as above; details: for Inhibition of the sialidase: in words; for Inhibition (%): 100 minus residual activity (%)
# Protocol: (§1) A reaction system (0.2 ml) contained 50-100 nmol of sialic acid-bound saccharide substrate, 0.2 mg of bovine serum albumin, […] of sodium acetate buffer (pH 4.6), 0.2 mg of Triton X-100, and an enzyme fraction, and a substrate consisting mainly of bovine brain mixed gangliosides (Sigma, Type II) was used.
# (§2) A reaction mixture having the aforementioned composition was incubated at 37° C. for 15-60 minutes, and the reaction was stopped by quick freezing. The released sialic acid was quantitated by the thiobarbituric acid method of Warren (Warren L., J. Biol. Chem. 234, 1971-1975, 1959) at 549 nm and 532 nm. In Steps 1, 2, and 7 explained below, the quantitation was performed by the same method after the reaction product was passed through an AGX-2 ion exchange mini column. The amount of the sialic acid (nmol) released per hour was defined as 1 unit. When a synthetic substrate, 4-methylumbelliferyl N-acetylneuraminic acid (4MU-NeuAc) was used as the sialic acid-bound saccharide substrate, Triton X-100 was excluded from the reaction system, and released 4-methylumbelliferone was quantitated by a fluorospectrophotometer.
# The numerical values each represent 100 minus (residual activity (%) in the presence of inhibitor).
# [3] = molecular target: T1, bovine membrane-bound sialidase; assay: Sialidase activity of purified bovine membrane-bound sialidase for various substrates (substrate specificity); details: for Hydrolysis activity (%): relative activity, activity for GD3-ganglioside defined as 100, purified enzyme
# Protocol: as §1, §2
# The results of investigations about the activity of the enzyme of the present invention for various substrates are shown in Table 2. The numerical values represent relative activity when the activity for the GD3-ganglioside is defined to be 100.
compound,measurement,setting,value
O[C@H](CS)[C@H](O)CS (racemic) [dithiothreitol],Stabilization of the sialidase,[1],stabilized
"CC(=O)N[C@H]1[C@H]([C@H](O)[C@H](O)CO)OC(C(=O)O)=C[C@@H]1O [2-deoxy-2,3-dehydro-N-acetylneuraminic acid]",Inhibition of the sialidase,[2],weakly inhibited
same,Inhibition (%),[2]; inhibitor 0.2 mM,45%
same,Stabilization of the sialidase,[1],stabilized
O=C(O)c1cc[c]([Hg][OH])cc1 [4-Hydroxy mercury benzoate],Inhibition of the sialidase,[2],strongly inhibited
same,Inhibition (%),[2]; inhibitor 50 μM,92%
"CC(=O)N[C@H]1[C@H]([C@H](O)[C@H](O)CO)OC(Oc2ccc3c(C)cc(=O)oc3c2)(C(=O)O)C[C@@H]1O (some centres unmarked) [4-MUNeuAc, 4-methylumbelliferyl N-acetylneuraminic acid]",Substrate specificity: whether the sialidase acts on the substrate,[3],weakly acts on
same,Hydrolysis activity (%),[3],25%
[Cl][Cu][Cl] [CuCl2],Inhibition (%),[2]; inhibitor 1 mM,95%
[Cu+2] [Cu^2+],Inhibition of the sialidase,[2],strongly inhibited
OCC(O)CO [glycerol],Stabilization of the sialidase,[1],stabilized
"CC(=O)N[C@H]1[C@H]([C@H](O)[C@H](O)CO)O[C@@](O[C@H]2[C@@H](O)[C@@H](CO)O[C@@H](O[C@H]3[C@H](O)[C@@H](O)C(O)O[C@@H]3CO)[C@@H]2O)(C(=O)O)C[C@@H]1O (stereo partly drawn) [α2-3 syalyllactose, α2-3 sialyllactose]",Substrate specificity: whether the sialidase acts on the substrate,[3],did not act on
same,Substrate specificity: whether the sialidase acts on the substrate,[3]; listed as α2-3 sialyllactose,weakly acts on
same,Hydrolysis activity (%),[3],11%
Fetuin: glycoprotein substrate,Substrate specificity: whether the sialidase acts on the substrate,[3],does not substantially act on
same,Hydrolysis activity (%),[3],2%
GD1a-ganglioside,Substrate specificity: whether the sialidase acts on the substrate,[3],acts on
same,Hydrolysis activity (%),[3],56%
GD3-ganglioside,Substrate specificity: whether the sialidase acts on the substrate,[3],acts on
same,Hydrolysis activity (%),[3],100%
GM1-ganglioside,Substrate specificity: whether the sialidase acts on the substrate,[3],does not substantially act on
same,Hydrolysis activity (%),[3],1%
GM2-ganglioside,Substrate specificity: whether the sialidase acts on the substrate,[3],does not substantially act on
same,Hydrolysis activity (%),[3],3%
GM3-ganglioside,Substrate specificity: whether the sialidase acts on the substrate,[3],acts on
same,Hydrolysis activity (%),[3],62%
Orosomucoid: glycoprotein substrate,Substrate specificity: whether the sialidase acts on the substrate,[3],does not substantially act on
same,Hydrolysis activity (%),[3],2%
Triton X-100,Sialidase activity in the presence of surface active agent,[2]; 0.1 to 0.2% of Triton X-100,highly active
